A word on the melting point: it is the temperature of the solid-liquid transition.

Several values for one entry are separate records, joined by “and”; a condition that tells them apart may be missing. Equal values may be shown once.

As to `COc1cc2c(cc1OC)C(=O)C(C(=O)c1ccncc1)C2` (stereo not shown), the melting point is 204 to 207 °C and 203 to 206 °C.
